What was measured:
[1] = Dose normalized AUC in Wistar rat at 0.2 to 1 mg/kg, po measured up to 24 hrs by HPLC-MS-MS analysis; assay type: ADME, organism-based; details: in vivo
HeLa = experiment: cells; details: Homo sapiens, 96 h
Description: Antiproliferative activity against human HeLa cells after 96 hrs by crystal violet staining based assay

[2] = Oral bioavailability in Wistar rat at 0.2 to 1 mg/kg measured up to 24 hrs by HPLC-MS-MS analysis; assay type: ADME, organism-based; details: in vivo
[3] = Oral bioavailability in Beagle dog at 0.2 to 1 mg/kg measured up to 24 hrs by HPLC-MS-MS analysis; assay type: ADME, organism-based, Canis lupus familiaris; details: in vivo
[4] = Half life in Wistar rat at 0.1 to 0.5 mg/kg, iv administered as bolus dose measured up to 24 hrs by HPLC-MS-MS analysis; assay type: ADME, organism-based; details: in vivo; for half-life: Wistar
[5] = Volume of distribution at steady state in Wistar rat at 0.1 to 0.5 mg/kg, iv administered as bolus dose measured up to 24 hrs by HPLC-MS-MS analysis; assay type: ADME, organism-based; details: in vivo; for Vd: Wistar, read-out: Vdss
[6] = Dose normalized AUC in Beagle dog at 0.2 to 1 mg/kg, po measured up to 24 hrs by HPLC-MS-MS analysis; assay type: ADME, organism-based, Canis lupus familiaris; details: in vivo
[7] = Blood clearance in Beagle dog at 0.1 to 0.5 mg/kg administered as iv infusion measured up to 24 hrs by HPLC-MS-MS analysis; assay type: ADME, organism-based, Canis lupus familiaris
[8] = Volume of distribution at steady state in Beagle dog at 0.1 to 0.5 mg/kg administered as iv infusion measured up to 24 hrs by HPLC-MS-MS analysis; assay type: ADME, organism-based, Canis lupus familiaris; details: in vivo, read-out: Vdss
[9] = Half life in Beagle dog at 0.1 to 0.5 mg/kg, administered as iv infusion measured up to 24 hrs by HPLC-MS-MS analysis; assay type: ADME, organism-based, Canis lupus familiaris; details: in vivo
[10] = Blood clearance in Wistar rat at 0.1 to 0.5 mg/kg, iv administered as bolus dose measured up to 24 hrs by HPLC-MS-MS analysis; assay type: ADME, organism-based
[11] = Aqueous solubility of the compound; assay type: physicochemical; details: buffer
[12] = Lipophilicity, LogD of compound at pH 7.5 by reverse phase HPLC analysis; assay type: physicochemical; details: buffer
HT-29 = experiment: cells; details: Homo sapiens, HT-29, 96 h
Description: Antiproliferative activity against human HT-29 cells after 96 hrs by crystal violet staining based assay

Structure (SMILES) | IC50 (HeLa) | bioavailability [2] | AUC/dose [1] | also measured
CC(C)CNc1nccn2c(-c3ccc(C(=O)NC4CC4)cc3)cnc12 |  |  |  | AUC/dose ([1]; BLD = below limit of detection): Bld
CC(C)CNc1cc(-c2ccccc2)cc2c1ncn2-c1ccc(C(=O)NC2CC2)cc1 | 2480 nM |  |  | 
CC(C)CNc1cccc2c1ncn2-c1ccc(C(=O)NC2CC2)cc1 | > 10000 nM |  |  | 
N#Cc1ccccc1Nc1nc2ccc(-c3ccc(NC(=O)Cc4ccccc4)cc3)cn2n1 | 695 nM | 12% | 0.084 kg·h/L | 
C=C(c1ccc(OC)c(F)c1)c1cc(NCCC(F)(F)F)c2ncc(-c3ccc(C(=O)NC4CC4)c(C)c3)n2n1 |  | 33% | 0.47 kg·h/L | bioavailability [3]: 1.4%; half-life [4]: 186 min; Vd [5]: 2.1 L/kg; AUC/dose [6]: 0.005 kg·h/L; clearance [7]: 56.7 mL/min/kg; Vd [8]: 2.6 L/kg; half-life [9]: 50.4 min; clearance [10]: 14.5 mL/min/kg
COc1cc(S(C)(=O)=O)ccc1Nc1nc2ccc(-c3ccc(NC(=O)Cc4ccc(F)cc4)cc3)cn2n1 | 246 nM | 49% | 0.98 kg·h/L | 
COc1cc(C(=O)N2CC3(COC3)C2)ccc1Nc1nc2ccc(-c3ccc(NC(=O)Cc4ccc(F)cc4)cc3)cn2n1 | 85 nM |  | 0.049 kg·h/L | 
COc1cc(S(C)(=O)=O)ccc1Nc1nc2ccc(-c3ccc(NC(=O)[C@@H](C)c4ccc(F)cc4)cc3)cn2n1 | 7000 nM |  |  | 
CC(C)CNc1nc(-c2ccccc2)nn2c(-c3ccc(C(=O)NC4CC4)cc3)cnc12 | > 10000 nM |  |  | 
Cc1cc(-c2cnc3c(NCCC(F)(F)F)cc(C4(c5cc(F)ccc5O)CC4)nn23)ccc1C(=O)NC1CC1 |  | 45% | 0.76 kg·h/L | bioavailability [3]: 81%; half-life [4]: 282 min; Vd [5]: 3.1 L/kg; AUC/dose [6]: 1.1 kg·h/L; clearance [7]: 21.7 mL/min/kg; Vd [8]: 2.1 L/kg; half-life [9]: 126 min; clearance [10]: 14.2 mL/min/kg
CC(C)CNc1cc(-c2ccccc2)nn2c(-c3ccc(C(=O)NC4CC4)cc3)cnc12 | 1550 nM |  |  | 
N#Cc1ccccc1Nc1nc2ccc(-c3ccc(NC(=O)Cc4ccc(F)cc4)cc3)cn2n1 | 266 nM | 6.6% | 0.066 kg·h/L | 
COc1cc(C(=O)N2C[C@@H]3C[C@H]2CO3)ccc1Nc1nc2ccc(-c3ccc(NC(=O)Cc4ccc(F)cc4)cc3)cn2n1 | 50 nM | 17% | 0.23 kg·h/L | 
COc1cc(C(=O)N2CCOCC2)ccc1Nc1nc2ccc(-c3ccc(NC(=O)Cc4ccc(F)cc4)cc3)cn2n1 | 140 nM | 20% | 0.81 kg·h/L | 
CC(C)CNc1nc(-c2ccccc2)cc2c(-c3ccc(C(=O)NC4CC4)cc3)cnn12 | 7730 nM |  |  | 
O=C(Cc1ccc(F)cc1)Nc1ccc(-c2ccc3nc(Nc4ccc(C(=O)N5CCOCC5)cc4)nn3c2)cc1 | 725 nM |  |  | 

Structure (SMILES) | IC50 (HeLa) | bioavailability [2] | AUC/dose [1] | also measured
COc1cc(S(C)(=O)=O)ccc1Nc1nc2ccc(-c3ccc(NC(=O)C4(c5ccc(F)cc5)CC4)cc3)cn2n1 | > 10000 nM |  |  | 
O=C(Cc1ccc(F)cc1)Nc1ccc(-c2ccc3nc(Nc4ccc(C(=O)N5CCOCC5)cc4OCC(F)(F)F)nn3c2)cc1 | 26 nM |  |  | solubility [11]: Insoluble; chromatographic logD [12]: 3.9
COc1cc(C(=O)N(C)C)ccc1Nc1nc2ccc(-c3ccc(NC(=O)Cc4ccc(F)cc4)cc3)cn2n1 | 200 nM |  |  | 
CNC(=O)Nc1ccc(-c2cnc3c(NCC(C)C)nccn23)cc1 |  | 94% | 4.9 kg·h/L | 
COc1ccccc1Nc1nc2ccc(-c3ccc(NC(=O)Cc4ccccc4)cc3)cn2n1 | 2300 nM | 9% | 0.066 kg·h/L | 
COc1cc(N2CCOC2=O)ccc1Nc1nc2ccc(-c3ccc(NC(=O)Cc4ccc(F)cc4)cc3)cn2n1 | 120 nM | 52% | 1.9 kg·h/L | 
COc1cc(C(=O)N2CC(F)C2)ccc1Nc1nc2ccc(-c3ccc(NC(=O)[C@H](C)c4ccc(F)cc4)cc3)cn2n1 | 57 nM | 55% | 1.8 kg·h/L | bioavailability [3]: 39%; half-life [4]: 318 min; Vd [5]: 2.1 L/kg; AUC/dose [6]: 0.64 kg·h/L; clearance [7]: 9.83 mL/min/kg; Vd [8]: 5.2 L/kg; half-life [9]: 420 min; clearance [10]: 5.17 mL/min/kg
COc1ccccc1Nc1nc2ccc(-c3cc(C)c(O)c(C)c3)cn2n1 | 5900 nM |  |  | 
COc1cc(C(=O)N2CC(F)C2)ccc1Nc1nc2ccc(-c3ccc(NC(=O)Cc4ccc(F)cc4)cc3)cn2n1 | 37 nM |  |  | 
COc1cc(N2CCOC2=O)ccc1Nc1nc2ccc(-c3ccc(NC(=O)[C@H](C)c4ccc(F)cc4)cc3)cn2n1 | 270 nM | 49% | 4.2 kg·h/L | t1/2 ([4]; 24 h): 8 h; Vdss ([5]; 24 h): 1.4 L/kg
Cc1cc(-c2cnc3c(NCC(C)C)nccn23)ccc1C(=O)NC1CC1 |  | 20% | 0.22 kg·h/L | 
CCC(C(=O)Nc1ccc(-c2ccc3nc(Nc4ccc(S(C)(=O)=O)cc4OC)nn3c2)cc1)c1ccc(F)cc1 (racemic) | 7500 nM |  |  | 
COc1cc(S(C)(=O)=O)ccc1Nc1nc2ccc(-c3ccc(NC(=O)[C@H](C)c4ccc(F)cc4)cc3)cn2n1 [BAY-1161909] | 260 nM | 49% | 3.3 kg·h/L | bioavailability [3]: 63%; half-life [4]: 840 min; Vd [5]: 2.4 L/kg; AUC/dose [6]: 0.52 kg·h/L; clearance [7]: 23.3 mL/min/kg; Vd [8]: 6.7 L/kg; half-life [9]: 378 min; clearance [10]: 3.17 mL/min/kg
COc1ccc(Oc2cc(NCCC(F)(F)F)c3ncc(-c4ccc(C(=O)NC5CC5)c(C)c4)n3n2)c(F)c1F [BAY-1217389] |  | 72% | 2.4 kg·h/L | bioavailability [3]: 71%; half-life [4]: 468 min; Vd [5]: 2.2 L/kg; AUC/dose [6]: 2.5 kg·h/L; Vd [8]: 3.9 L/kg; half-life [9]: 780 min
Cc1cc(-c2cnn3c(NC[C@H]4C[C@@](C)(O)C4)cc(Oc4cccnc4)nc23)ccc1C(=O)NC1CC1 [LUVIXASERTIB] |  |  |  | IC50 (HT-29): 557 nM

— ChEMBL document CHEMBL4619753, “Treating Cancer by Spindle Assembly Checkpoint Abrogation: Discovery of Two Clinical Candidates, BAY 1161909 and BAY 1217389, Targeting MPS1 Kinase” (J Med Chem, 2020)
